In patent US11753363B2, “13-oxidized ingenol derivative and use thereof” (Tianjin Pharmaceutical Da Ren Tang Group Corp., Ltd. …, priority 2017, dated 2023):
≈ marks a conversion by molar mass, not a printed value.

Assays:
[1] = system: LOVO (human colon cancer cells); test: Inhibition of proliferation of tumor cell lines (MTT), LOVO; assay type: cell-based; conditions: 72 h; for IC50: Homo sapiens, read-out: IC50 value of compound for inhibition of proliferation of tumor cell lines, LOVO
Method: (§1) In this example, the inhibitory activity of compounds of the present invention against proliferation of seven human tumor cell lines and mouse B16-F10 melanoma cells was tested in vitro, and the IC50 value (50% inhibitory concentration) of compounds against each tumor cell line was calculated.
(§2) The seven human tumor cell lines are: MCF-7 (human breast cancer cells), LOVO (human colon cancer cells), A549 (human lung cancer cells), BGC-823 (human gastric cancer cells), SMMC-7721 (human liver cancer cells), K562 (human leukemia cells), and HeLa (human cervical cancer cells).
(§3) IC50 values of the compounds for A549, BGC-823, LOVO, MCF-7, SMMC-7721, HeLa, and B16-F10 cells were tested. The above cells were routinely cultured in 1640 nutrient solution containing 10% calf serum, with passage for 1 time every 2 days, and the cells in logarithmic growth phase were taken for experiments. After the A549, BGC-823, LOVO, MCF-7, SMMC-7721, HeLa and B16-F10 cells in logarithmic growth phase were subjected to 0.25% trypsin digestion, they were blown into a single cell suspension, and then the cell concentration was adjusted to about 1×10^5·mL^−1 using RPMI 1640 solution containing 10% calf serum. The cells were seeded in a 96-well culture plate at 100 μL per well, and cultured for 24 hours until the cells were attached. K562 cells were taken and centrifuged and diluted into 2×10^5·mL^−1 single cell suspension with RPMI 1640 solution containing 10% calf serum, and inoculated into a 96-well culture plate at 100 μL per well.
(§4) 100 μL of sample solution with different concentrations to be tested were added to the above 96-well plate, each concentration was added to 4 wells in parallel, and the cell control group was added with an equal volume of RPMI 1640 medium containing 10% calf serum to make a reaction volume of 200 μL. After incubating in an incubator at 37° C., 5% CO2 for 72 h, 10 μL of 5 mg·mL^−1 MTT solution was added to each well, and incubated at 37° C. for 4 h. The supernatant was carefully aspirated, 180 μL of DMSO was added to each well followed by shaking, and the absorbance (OD) value was measured at 570 nm on the microplate reader. The inhibition rate was calculated, and regression equation was established with the logarithmic value of the sample concentration and the inhibition rate (IR) to find the IC50 value of the compound against the cells to be tested. IR (%)=(1−OD value of the experimental group/OD value of the cell control group)×100%

[2] = system: A549 (human lung cancer cells); test: Inhibition of proliferation of tumor cell lines (MTT), A549; assay type: cell-based; conditions: A549, 72 h; for IC50: Homo sapiens, read-out: IC50 value of compound for inhibition of proliferation of tumor cell lines, A549
Method: as §1, §2, §3, §4

[3] = system: BGC-823 (human gastric cancer cells); test: Inhibition of proliferation of tumor cell lines (MTT), BGC-823; assay type: cell-based; conditions: BGC-823, 72 h; for IC50: Homo sapiens, read-out: IC50 value of compound for inhibition of proliferation of tumor cell lines, BGC-823
Method: as §1, §2, §3, §4

[4] = system: SMMC-7721 (human liver cancer cells); test: Inhibition of proliferation of tumor cell lines (MTT), SMMC-7721; assay type: cell-based; conditions: SMMC-7721, 72 h; for IC50: Homo sapiens, read-out: IC50 value of compound for inhibition of proliferation of tumor cell lines, SMMC-7721
Method: as §1, §2, §3, §4

[5] = system: mouse B16-F10 melanoma cells; test: Inhibition of proliferation of tumor cell lines (MTT), B16-F10; assay type: cell-based; conditions: B16-F10, 72 h; for IC50: Mus musculus, read-out: IC50 value of compound for inhibition of proliferation of tumor cell lines, B16-F10
Method: as §1, §3, §4

[6] = system: release of IL-8 by human keratinocytes (HaCaT); test: Release of IL-8 by human keratinocytes (HaCaT), IL-8 Elisa; assay type: cell-based; conditions: 24 h, (Csample−Ccontrol)/Ccontrol×100%
Method: This Example investigated the effect of compound on release of IL-8 by human keratinocytes (HaCaT) and calculated the efficiency of each compound in stimulating the release of IL-8 by human keratinocytes (HaCaT).
Hacat cells were cultured in MEM+10% FBS under the conditions of 37° C., 5% CO2, and when the cells reached 80-95% fusion, they were inoculated into a 96-well culture plate (1×10^4 cells/well) at 100 μL/well, and incubated for 18-24 h. The supernatant was discarded and the cells were incubated for 3-6 h in 1% FBS medium. Different concentrations of the sample solution of compound to be tested were added to each well, and the cell control group was added with an equal volume of 1% FBS medium at 10 μL/well, and incubated for 24 h. The supernatant was taken and tested according to the operation sequence of the IL-8 Elisa kit. Calculation formula of Efficiency: Efficiency (%)=(Csample−Ccontrol)/Ccontrol×100%

[7] = system: neutrophilic granulocytes; test: Neutrophil oxidative burst (luminol chemiluminescence); assay type: cell-based; conditions: rat neutrophils, (Csample−Ccontrol)/Ccontrol×100%; for activation at 0.1 µg/mL / activation at 3 µg/mL: Neutrophil, read-out: Efficiency of compounds in stimulating neutrophil oxidative burst; for activation at 0.1 µg/mL: 0.1 μg/mL
Method: This example investigated the effect of compound on neutrophil oxidative burst and calculated the efficiency of each compound in stimulating neutrophil oxidative burst.
Blood was taken from the abdominal aorta of rat. The neutrophilic granulocytes were isolated by the operational procedure of the rat peripheral blood neutrophil isolation kit. The neutrophilic granulocytes were re-suspended by Hanks, and were plated in a 96-well white plate at 1×10^5 cells/well, 80 μL/well; 1 mM of Luminol was added at 10 μL/well; 10 μL of the sample was added to each well, and the degree of oxidative burst was evaluated by chemiluminescence. Calculation formula of Efficiency: Efficiency (%)=(Csample−Ccontrol)/Ccontrol×100%

[8] = system: K562 (human leukemia cells); test: Inhibition of proliferation of tumor cell lines (MTT), K562; assay type: cell-based; conditions: K562, 72 h; for IC50: Homo sapiens, read-out: IC50 value of compound for inhibition of proliferation of tumor cell lines, K562
Method: as §1, §2, §3, §4

[9] = system: HeLa (human cervical cancer cells); test: Inhibition of proliferation of tumor cell lines (MTT), HeLa; assay type: cell-based; conditions: 72 h; for IC50: Homo sapiens, read-out: IC50 value of compound for inhibition of proliferation of tumor cell lines, HeLA
Method: as §1, §2, §3, §4

[10] = system: MCF-7 (human breast cancer cells); test: Inhibition of proliferation of tumor cell lines (MTT), MCF-7; assay type: cell-based; conditions: for IC50: Homo sapiens, MCF7, MCF-7, 72 h, read-out: IC50 value of compound for inhibition of proliferation of tumor cell lines, MCF-7
Method: as §1, §2, §3, §4

[11] = system: B16-F0 mouse melanoma; test: Antitumor activity in B16-F0 mouse melanoma model; assay type: in vivo; conditions: female C57BL/6J mice, intradermal B16 tumor, skin administration once per day for 3 days, 20 μL/mouse, tumor weight on day 19
Method: This Example investigated the antitumor activity of compounds in B16-F0 mouse melanoma model.
In vitro passage of B16-F0 tumor source was inoculated subcutaneously into female C57BL/6J mice, and passage was carried out after tumor formation. After passage, the subcutaneous tumor tissue of the tumor-bearing mice was taken and ground with 3 times amount of physiological saline to form a tumor cell suspension, and 0.2 mL/mouse of which was inoculated subcutaneously into the axilla of forelimb of mice, which were used as the tumor-source mice. Female C57BL/6J mice were taken and their hair in an area of 4 cm^2 on the neck and back was shaven. After anesthesia with diethyl ether, B16 tumor source was inoculated intradermally at 0.05 mL/mouse. After 3 days of inoculation, the skin was continuously administered for 3 days, once per day, 20 μL/mouse each time, and in the test, a solvent group as a negative control group was included. On the 19th day of the experiment, the experiment was terminated. After the mice were euthanized, the intradermally transplanted tumors were completely separated and excised, and the tumor was weighed to calculate the tumor inhibition rate. Calculation formula of tumor inhibition rate: tumor inhibition rate (%)=(Wmodel group−Wadministration group)/Wmodel group×100%
The tumor growths of the experimental group and the solvent control group were compared to evaluate the antitumor activity of each compound, and the compound with P<0.05 was considered to be effective.

[12] = Homo sapiens, HaCaT, 0.1 μg/mL, read-out: Efficiency of compound in stimulating the release of IL-8 by HaCaT cells

| Compound | IC50 [1] [µg/mL] | IC50 [2] [µg/mL] | IC50 [3] [µg/mL] | IC50 [4] [µg/mL] | IC50 [5] [µg/mL] | Tumor-inhibition rate [11] [%] | activation at 0.1 µg/mL [6, 12] [%] | activation at 0.1 µg/mL [7] [%] | IC50 [8] [µg/mL] | IC50 [9] [µg/mL] | IC50 [10] [µg/mL] | activation at 3 µg/mL ([7]; 3 μg/mL) [%] | other results |
| --- | --- | --- | --- | --- | --- | --- | --- | --- | --- | --- | --- | --- | --- |
| C/C=C(/C)C(=O)O[C@H]1C(C)=C[C@]23C(=O)[C@@H](C=C(CO)[C@@H](O)[C@]12O)[C@H]1[C@@H](C[C@H]3C)C1(C)C [3-O-angeloyl-ingenol, reference compound] | – | – | – | – | – | – | – | – | – | – | – | – | IC50 value of compound for inhibition of proliferation of tumor cell lines, LOVO [1]: 33.4 µg/mL; IC50 value of compound for inhibition of proliferation of tumor cell lines, A549 [2]: 31.2 µg/mL; IC50 value of compound for inhibition of proliferation of tumor cell lines, BGC-823 [3]: 43.5 µg/mL; IC50 value of compound for inhibition of proliferation of tumor cell lines, SMMC-7721 [4]: 28.2 µg/mL; IC50 value of compound for inhibition of proliferation of tumor cell lines, B16-F10 [5]: 38.1 µg/mL; Efficiency of compound in stimulating the release of IL-8 by HaCaT cells ([6]; 0.1 μg/mL): 31.9%; Efficiency of compound in stimulating the release of IL-8 by HaCaT cells ([6]; 1 μg/mL): 41.4%; Efficiency of compounds in stimulating neutrophil oxidative burst ([7]; 3 μg/mL): 51.4%; IC50 value of compound for inhibition of proliferation of tumor cell lines, K562 [8]: 0.0076 µg/mL; IC50 value of compound for inhibition of proliferation of tumor cell lines, HeLA [9]: 49.4 µg/mL; IC50 value of compound for inhibition of proliferation of tumor cell lines, MCF-7 ([10]; MCF-7, 72 h): 57.4 µg/mL |
| CCCCCCCCCCCC(=O)O[C@@]12C[C@@H](C)[C@]34C=C(C)[C@H](OC(=O)C(C)(C)C)[C@@]3(O)[C@H](O)C(CO)=C[C@H](C4=O)[C@@H]1C2(C)C [3-O-trimethylacetyl-13-O-dodecanoyl-ingenol] | 9.68 (≈ 15.3 µM) | 17.5 (≈ 27.7 µM) | 6.81 (≈ 10.8 µM) | 15.1 (≈ 23.9 µM) | 7.7 (≈ 12.2 µM) | 47.4 | 83.7 | 205 | < 0.2 | 14.2 (≈ 22.5 µM) | 8.79 (≈ 13.9 µM) | – | – |
| C/C=C(/C)C(=O)O[C@H]1C(C)=C[C@]23C(=O)[C@@H](C=C(CO)[C@@H](O)[C@]12O)[C@@H]1C(C)(C)[C@]1(OC(C)=O)C[C@H]3C [Compound 8, 3-O-angeloyl-13-O-acetyl-ingenol] | > 50 | > 50 | > 100 | 96.6 (≈ 198 µM) | – | 90.3 | – | – | 0.0065 (≈ 0.0133 µM) | > 100 | > 50 | – | activation at 1 µg/mL ([6]; Homo sapiens, HaCaT, 1 μg/mL, read-out: Efficiency of compound in stimulating the release of IL-8 by HaCaT cells): 38.3% |
| CCCCCCCCCCCC(=O)O[C@@]12C[C@@H](C)[C@]34C=C(C)[C@H](OC(C)=O)[C@@]3(O)[C@H](O)C(CO)=C[C@H](C4=O)[C@@H]1C2(C)C [Compound 10, 3-O-acetyl-13-O-dodecanoyl-ingenol] | 9.41 (≈ 16 µM) | 10.7 (≈ 18.2 µM) | 14.7 (≈ 25 µM) | 13.1 (≈ 22.2 µM) | 21.4 (≈ 36.3 µM) | – | 79.5 | 111 | 0.22 (≈ 0.374 µM) | 10.9 (≈ 18.5 µM) | 16.3 (≈ 27.7 µM) | – | – |
| CCCCCCCCCCCC(=O)O[C@@]12C[C@@H](C)[C@]34C=C(C)[C@H](O)[C@@]3(O)[C@H](O)C(COC(=O)CCC)=C[C@H](C4=O)[C@@H]1C2(C)C [Compound 13, 20-O-n-butanoyl-13-O-dodecanoyl-ingenol] | 6.93 (≈ 11.2 µM) | 17.2 (≈ 27.9 µM) | 12.4 (≈ 20.1 µM) | 12.5 (≈ 20.3 µM) | 30.5 (≈ 49.4 µM) | – | 30.3 | – | 0.07 (≈ 0.113 µM) | 24.2 (≈ 39.2 µM) | 18 (≈ 29.2 µM) | 62.4 | – |
| C/C=C(\C)C(=O)O[C@H]1C(C)=C[C@]23C(=O)[C@@H](C=C(CO)[C@@H](O)[C@]12O)[C@@H]1C(C)(C)[C@]1(OC(=O)CCCCCCCCCCC)C[C@H]3C [Compound 20, 3-O-tigloyl-13-O-dodecanoyl-ingenol] | 9.91 (≈ 15.8 µM) | 13.1 (≈ 20.8 µM) | 11 (≈ 17.5 µM) | 18.4 (≈ 29.3 µM) | 3.33 (≈ 5.3 µM) | – | 109 | – | 0.81 (≈ 1.29 µM) | 7.45 (≈ 11.8 µM) | 6.8 (≈ 10.8 µM) | 43.8 | – |
